Measurements as given in ChEMBL document CHEMBL5375992, “Design and Development of IKZF2 and CK1α Dual Degraders” (J Med Chem, 2023).
Converted amounts (≈) assume the structure as drawn. The source made the active and inactive calls. No cut-off for these calls is given here.

Key:
A2780 = experiment: Cytotoxicity against human A2780 cells incubated for 5 days by MTT assay; type: functional, cell-based; conditions: time 5.0 day
OCI-Ly3 = experiment: Cytotoxicity against human OCILY3 cells incubated for 5 days by MTT assay; type: functional, cell-based; conditions: time 5.0 day
[1] = target: T1, Protein cereblon/Zinc finger protein Helios (Homo sapiens) (UniProt Q96SW2+Q9UKS7); experiment: Protac activity at CRBN/IKZF2 (unknown origin) transfected in HEK293T cells at 100 nM incubated for 24 hrs by flow cytometry analysis relative to control; type: cell-based
[2] = target: T2, Cereblon/Casein kinase I alpha (Homo sapiens) (UniProt P48729+Q96SW2); experiment: Protac activity at CRBN/CK1alpha (unknown origin) transfected in HEK293T cells at 100 nM incubated for 24 hrs by flow cytometry analysis relative to control; type: cell-based
[3] = Metabolic stability in mouse liver microsomes assessed as half life preincubated with NADPH and UDPGA for 5 mins followed by compound addition and measured upto 60 mins by LC-MS/MS analysis; type: ADME, Microsome
[4] = Metabolic stability in human liver microsomes assessed as half life preincubated with NADPH and UDPGA for 5 mins followed by compound addition and measured upto 60 mins by LC-MS/MS analysis; type: ADME, Microsome
[5] = Metabolic stability in mouse liver microsomes assessed as intrinsic clearance preincubated with NADPH and UDPGA for 5 mins followed by compound addition and measured upto 60 mins by LC-MS/MS analysis; type: ADME, Microsome; conditions: read-out: CLH
[6] = Metabolic stability in human liver microsomes assessed as intrinsic clearance preincubated with NADPH and UDPGA for 5 mins followed by compound addition and measured upto 60 mins by LC-MS/MS analysis; type: ADME, Microsome; conditions: read-out: CLH
[7] = target: T3, Cereblon/Ikaros (Homo sapiens) (UniProt Q96SW2+Q13422); experiment: Protac activity at CRBN/IKZF1 (unknown origin) transfected in HEK293T cells at 100 nM incubated for 24 hrs by flow cytometry analysis relative to control; type: cell-based
[8] = target: T4, Protein cereblon/Eukaryotic peptide chain release factor GTP-binding subunit ERF3A (Homo sapiens) (UniProt Q96SW2+P15170); experiment: Protac activity at CRBN/GSPT1 (unknown origin) transfected in HEK293T cells at 100 nM incubated for 24 hrs by flow cytometry analysis relative to control; type: cell-based
[9] = Solubility of compound in DMSO; type: physicochemical
[10] = target: T1, Protein cereblon/Zinc finger protein Helios (Homo sapiens); experiment: Protac activity at CRBN/IKZF2 in human MOLM-13 cells at 25 uM incubated for 24 hrs by Western blotting analysis relative to control; type: cell-based
[11] = target: T3, Cereblon/Ikaros (Homo sapiens); experiment: Protac activity at CRBN/IKZF1 in human MOLM-13 cells at 25 uM incubated for 24 hrs by Western blotting analysis relative to control; type: cell-based
[12] = target: T1, Protein cereblon/Zinc finger protein Helios (Homo sapiens); experiment: Protac activity at CRBN/IKZF2 in human MOLM-13 cells assessed as relative ratio at 25 uM incubated for 24 hrs by Western blotting analysis relative to DMSO; type: cell-based
[13] = target: T3, Cereblon/Ikaros (Homo sapiens); experiment: Protac activity at CRBN/IKZF1 in human MOLM-13 cells assessed as relative ratio at 25 uM incubated for 24 hrs by Western blotting analysis relative to DMSO; type: cell-based
[14] = target: T3, Cereblon/Ikaros (Homo sapiens); experiment: Protac activity at CRBN/IKZF1 (unknown origin) transfected in HEK293T cells at 1 uM incubated for 24 hrs by flow cytometry analysis relative to control; type: cell-based
[15] = target: T1, Protein cereblon/Zinc finger protein Helios (Homo sapiens); experiment: Protac activity at CRBN/IKZF2 (unknown origin) transfected in HEK293T cells at 1 uM incubated for 24 hrs by flow cytometry analysis relative to control; type: cell-based
[16] = target: T2, Cereblon/Casein kinase I alpha (Homo sapiens); experiment: Protac activity at CRBN/CK1alpha (unknown origin) transfected in HEK293T cells at 1 uM incubated for 24 hrs by flow cytometry analysis relative to control; type: cell-based
[17] = target: T4, Protein cereblon/Eukaryotic peptide chain release factor GTP-binding subunit ERF3A (Homo sapiens); experiment: Protac activity at CRBN/GSPT1 (unknown origin) transfected in HEK293T cells at 1 uM incubated for 24 hrs by flow cytometry analysis relative to control; type: cell-based
[18] = target: T4, Protein cereblon/Eukaryotic peptide chain release factor GTP-binding subunit ERF3A (Homo sapiens); experiment: Protac activity at CRBN/GSPT1 in human NCI-H1048 cells at 10 to 100 nM incubated for 24 hrs by Western blotting analysis; type: cell-based; conditions: dose 10-100 nM

T1 sequence (Q96SW2 whole entry, looked up): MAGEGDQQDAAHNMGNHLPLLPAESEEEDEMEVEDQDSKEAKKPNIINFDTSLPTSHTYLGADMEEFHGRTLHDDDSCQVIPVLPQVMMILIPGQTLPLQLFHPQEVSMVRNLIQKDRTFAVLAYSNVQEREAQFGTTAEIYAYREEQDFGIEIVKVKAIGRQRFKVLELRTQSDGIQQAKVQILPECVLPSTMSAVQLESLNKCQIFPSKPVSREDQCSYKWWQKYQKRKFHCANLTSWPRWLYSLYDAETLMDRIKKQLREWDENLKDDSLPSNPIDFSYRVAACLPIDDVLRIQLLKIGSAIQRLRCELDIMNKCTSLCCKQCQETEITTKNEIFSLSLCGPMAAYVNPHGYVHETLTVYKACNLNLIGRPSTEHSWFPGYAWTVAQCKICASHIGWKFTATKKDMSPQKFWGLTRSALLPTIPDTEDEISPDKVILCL
T1 sequence (Q9UKS7 whole entry, looked up): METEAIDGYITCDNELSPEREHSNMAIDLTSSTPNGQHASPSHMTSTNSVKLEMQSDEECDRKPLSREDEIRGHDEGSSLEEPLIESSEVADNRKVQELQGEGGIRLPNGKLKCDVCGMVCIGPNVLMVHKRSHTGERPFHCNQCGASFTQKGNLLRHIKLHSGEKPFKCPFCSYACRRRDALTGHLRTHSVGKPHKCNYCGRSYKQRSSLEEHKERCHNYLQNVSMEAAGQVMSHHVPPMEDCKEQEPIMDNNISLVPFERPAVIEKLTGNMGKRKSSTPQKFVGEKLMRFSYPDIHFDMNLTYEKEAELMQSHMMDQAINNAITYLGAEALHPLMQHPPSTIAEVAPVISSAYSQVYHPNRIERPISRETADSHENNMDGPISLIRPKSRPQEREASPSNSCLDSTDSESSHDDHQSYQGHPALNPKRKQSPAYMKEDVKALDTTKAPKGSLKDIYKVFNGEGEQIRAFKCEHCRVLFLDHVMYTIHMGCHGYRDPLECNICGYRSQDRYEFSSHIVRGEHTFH
T2 sequence (P48729 2-337 limits assumed): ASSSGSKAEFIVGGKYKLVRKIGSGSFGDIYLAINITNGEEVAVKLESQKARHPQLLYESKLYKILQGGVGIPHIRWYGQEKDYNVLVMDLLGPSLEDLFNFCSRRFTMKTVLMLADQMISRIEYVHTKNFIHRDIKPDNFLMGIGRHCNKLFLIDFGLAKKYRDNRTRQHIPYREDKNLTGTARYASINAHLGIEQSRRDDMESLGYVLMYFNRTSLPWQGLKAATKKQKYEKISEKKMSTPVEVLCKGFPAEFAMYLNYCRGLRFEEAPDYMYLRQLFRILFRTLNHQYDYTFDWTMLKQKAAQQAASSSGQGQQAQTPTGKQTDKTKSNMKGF
T2 sequence (Q96SW2 whole entry partner): as the sequence (Q96SW2 whole entry, looked up) above
T4 sequence (P15170 whole entry, looked up): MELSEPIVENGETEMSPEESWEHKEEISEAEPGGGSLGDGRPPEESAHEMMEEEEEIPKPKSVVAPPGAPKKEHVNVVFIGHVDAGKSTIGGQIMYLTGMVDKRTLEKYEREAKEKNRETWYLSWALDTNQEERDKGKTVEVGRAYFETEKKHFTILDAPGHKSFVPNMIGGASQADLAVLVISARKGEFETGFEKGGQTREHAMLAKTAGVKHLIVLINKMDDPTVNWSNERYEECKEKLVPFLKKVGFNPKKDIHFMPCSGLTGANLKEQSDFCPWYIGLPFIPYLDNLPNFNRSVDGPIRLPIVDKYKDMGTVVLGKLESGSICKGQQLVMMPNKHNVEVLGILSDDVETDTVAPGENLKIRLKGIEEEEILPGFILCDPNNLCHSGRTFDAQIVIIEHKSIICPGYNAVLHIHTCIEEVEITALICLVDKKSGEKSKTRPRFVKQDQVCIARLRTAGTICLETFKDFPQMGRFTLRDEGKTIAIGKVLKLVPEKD
T4 sequence (Q96SW2 whole entry, looked up): as the sequence (Q96SW2 whole entry, looked up) above

SMILES	Activity [1] [%]	Activity [2] [%]	half-life [3] [h]	half-life [4] [h]	microsomal CLint [5] [µL/min/mg]	microsomal CLint [6] [µL/min/mg]	Activity [7] [%]	Activity [8] [%]	solubility ([9]; DMSO, read-out: solubility) [mM]	other results
COc1cc(C(=O)O)ccc1NC(=O)[C@@H]1N[C@@H](CC(C)(C)C)[C@](C#N)(c2ccc(Cl)cc2F)[C@H]1c1cccc(Cl)c1F	–	–	–	–	–	–	–	–	–	Activity (A2780): inactive; Activity (OCI-Ly3): inactive
CCOc1ccc2cc(C(=O)Nc3ccc4c(c3)CN(C3CCC(=O)NC3=O)C4=O)ccc2c1 (configuration not stated)	80	71	> 4.25	> 4.25	< 5.4	< 5.4	–	–	–	–
COc1ccc2cc(C(=O)Nc3ccc4c(c3)CN(C3CCC(=O)NC3=O)C4=O)ncc2c1 (configuration not stated)	68	61	3.48	0.04	6.6	584	–	–	–	–
COc1ccc2nc(C(=O)Nc3ccc4c(c3)CN(C3CCC(=O)NC3=O)C4=O)ccc2c1 (configuration not stated)	87	69	0.398	0.265	57.9	87.4	–	–	–	–
COc1ccc2c(c1)OCC(C(=O)Nc1ccc3c(c1)CN(C1CCC(=O)NC1=O)C3=O)=C2 (configuration not stated)	57	60	–	–	–	–	4	9	50 (≈ 22.4 mg/mL)	–
CCCCOc1ccc2cc(C(=O)Nc3ccc4c(c3)CN(C3CCC(=O)NC3=O)C4=O)ccc2c1 (configuration not stated)	81	70	> 4.25	> 4.25	< 5.4	< 5.4	–	–	–	–
COc1ccc2c(c1)C=C(C(=O)Nc1ccc3c(c1)CN(C1CCC(=O)NC1=O)C3=O)CO2 (configuration not stated)	75	66	–	–	–	–	16	9	50 (≈ 22.4 mg/mL)	–
CC(C)Oc1ccc2cc(C(=O)Nc3ccc4c(c3)CN(C3CCC(=O)NC3=O)C4=O)ccc2c1 (configuration not stated)	81	70	> 4.25	> 4.25	< 5.4	< 5.4	–	–	–	–
COc1ccc2cc(C(=O)Nc3ccc4c(c3)CN(C3CCC(=O)NC3=O)C4=O)ccc2n1 (configuration not stated)	89	68	> 4.25	0.268	< 5.4	108	–	–	–	–
Cc1ccc2c(c1)OCC(C(=O)Nc1ccc3c(c1)CN(C1CCC(=O)NC1=O)C3=O)=C2 (configuration not stated)	73	64	–	–	–	–	9	14	50 (≈ 21.6 mg/mL)	–
COc1cccc2c1C=C(C(=O)Nc1ccc3c(c1)CN(C1CCC(=O)NC1=O)C3=O)CO2 (configuration not stated)	75	59	–	–	–	–	39	24	50 (≈ 22.4 mg/mL)	–
Nc1cccc2c1CN(C1CCC(=O)NC1=O)C2=O (configuration not stated) [LENALIDOMIDE]	–	–	> 6	> 6	–	–	–	–	–	–
O=C1CCC(N2Cc3cc(NC(=O)C4=Cc5ccc(C(F)(F)F)cc5OC4)ccc3C2=O)C(=O)N1 (configuration not stated)	70	65	–	–	–	–	8	3	50 (≈ 24.3 mg/mL)	–
COc1ccc2cc(C(=O)Nc3ccc4c(c3)CN(C3CCC(=O)NC3=O)C4=O)cnc2c1 (configuration not stated)	73	62	> 4.25	0.338	< 5.4	68.4	–	–	–	–
O=C1CCC(N2Cc3cc(NC(=O)c4ccc5ccccc5c4)ccc3C2=O)C(=O)N1 (configuration not stated)	–	–	> 4.25	> 4.25	< 5.4	< 5.4	–	–	–	Activity [10]: Active; Activity [11]: inactive; Ratio [12]: 0.27; Ratio [13]: 0.5
COc1cc(Br)cc2c1OCC(C(=O)Nc1ccc3c(c1)CN(C1CCC(=O)NC1=O)C3=O)=C2 (configuration not stated)	74	65	–	–	–	–	13	2	50 (≈ 26.3 mg/mL)	–
O=C1CCC(N2Cc3cc(NC(=O)c4cc5ccccc5o4)ccc3C2=O)C(=O)N1 (configuration not stated)	80	62	–	–	–	–	13	2	–	solubility [9]: 25 mM (≈ 10.1 mg/mL)
[2H]C([2H])([2H])Oc1ccc2cc(C(=O)Nc3ccc4c(c3)CN(C3CCC(=O)NC3=O)C4=O)ccc2c1 (configuration not stated)	–	–	> 4.25	0.08	< 5.4	290	–	–	–	–
COc1ccc2cc(C(=O)Nc3ccc4c(c3)CN(C3CCC(=O)NC3=O)C4=O)ccc2c1 (configuration not stated)	90	70	3.13	–	7.4	362	7	8	–	Activity ([1]; tested as the 2H-labelled form): 70%; Activity ([2]; tested as the 2H-labelled form): 52%; Activity [14]: 9%; Activity [15]: 94%; Activity [16]: 70%; Activity [17]: 18%; Activity [18]: Active
